The structures appear in SMILES notation.

What is called Ki is the equilibrium dissociation constant of an inhibitor or competing ligand from its target.

The experiment addresses LRRK2 (Homo sapiens (Human), UniProt Q5S007). Kind of experiment: In Vitro LRRK2 Assay (LabChip 3000, fluorescently-labeled peptide substrate). The experiment is classed as biochemical. The conditions noted are these: ATP 130 μM, substrate 1 μM, 2 hours, ambient temperature; LRRK2 variant not given; read-out: Ki (μM), affinity values for LRRK2.

Chain of LRRK2 (Q5S007 whole entry G2019S): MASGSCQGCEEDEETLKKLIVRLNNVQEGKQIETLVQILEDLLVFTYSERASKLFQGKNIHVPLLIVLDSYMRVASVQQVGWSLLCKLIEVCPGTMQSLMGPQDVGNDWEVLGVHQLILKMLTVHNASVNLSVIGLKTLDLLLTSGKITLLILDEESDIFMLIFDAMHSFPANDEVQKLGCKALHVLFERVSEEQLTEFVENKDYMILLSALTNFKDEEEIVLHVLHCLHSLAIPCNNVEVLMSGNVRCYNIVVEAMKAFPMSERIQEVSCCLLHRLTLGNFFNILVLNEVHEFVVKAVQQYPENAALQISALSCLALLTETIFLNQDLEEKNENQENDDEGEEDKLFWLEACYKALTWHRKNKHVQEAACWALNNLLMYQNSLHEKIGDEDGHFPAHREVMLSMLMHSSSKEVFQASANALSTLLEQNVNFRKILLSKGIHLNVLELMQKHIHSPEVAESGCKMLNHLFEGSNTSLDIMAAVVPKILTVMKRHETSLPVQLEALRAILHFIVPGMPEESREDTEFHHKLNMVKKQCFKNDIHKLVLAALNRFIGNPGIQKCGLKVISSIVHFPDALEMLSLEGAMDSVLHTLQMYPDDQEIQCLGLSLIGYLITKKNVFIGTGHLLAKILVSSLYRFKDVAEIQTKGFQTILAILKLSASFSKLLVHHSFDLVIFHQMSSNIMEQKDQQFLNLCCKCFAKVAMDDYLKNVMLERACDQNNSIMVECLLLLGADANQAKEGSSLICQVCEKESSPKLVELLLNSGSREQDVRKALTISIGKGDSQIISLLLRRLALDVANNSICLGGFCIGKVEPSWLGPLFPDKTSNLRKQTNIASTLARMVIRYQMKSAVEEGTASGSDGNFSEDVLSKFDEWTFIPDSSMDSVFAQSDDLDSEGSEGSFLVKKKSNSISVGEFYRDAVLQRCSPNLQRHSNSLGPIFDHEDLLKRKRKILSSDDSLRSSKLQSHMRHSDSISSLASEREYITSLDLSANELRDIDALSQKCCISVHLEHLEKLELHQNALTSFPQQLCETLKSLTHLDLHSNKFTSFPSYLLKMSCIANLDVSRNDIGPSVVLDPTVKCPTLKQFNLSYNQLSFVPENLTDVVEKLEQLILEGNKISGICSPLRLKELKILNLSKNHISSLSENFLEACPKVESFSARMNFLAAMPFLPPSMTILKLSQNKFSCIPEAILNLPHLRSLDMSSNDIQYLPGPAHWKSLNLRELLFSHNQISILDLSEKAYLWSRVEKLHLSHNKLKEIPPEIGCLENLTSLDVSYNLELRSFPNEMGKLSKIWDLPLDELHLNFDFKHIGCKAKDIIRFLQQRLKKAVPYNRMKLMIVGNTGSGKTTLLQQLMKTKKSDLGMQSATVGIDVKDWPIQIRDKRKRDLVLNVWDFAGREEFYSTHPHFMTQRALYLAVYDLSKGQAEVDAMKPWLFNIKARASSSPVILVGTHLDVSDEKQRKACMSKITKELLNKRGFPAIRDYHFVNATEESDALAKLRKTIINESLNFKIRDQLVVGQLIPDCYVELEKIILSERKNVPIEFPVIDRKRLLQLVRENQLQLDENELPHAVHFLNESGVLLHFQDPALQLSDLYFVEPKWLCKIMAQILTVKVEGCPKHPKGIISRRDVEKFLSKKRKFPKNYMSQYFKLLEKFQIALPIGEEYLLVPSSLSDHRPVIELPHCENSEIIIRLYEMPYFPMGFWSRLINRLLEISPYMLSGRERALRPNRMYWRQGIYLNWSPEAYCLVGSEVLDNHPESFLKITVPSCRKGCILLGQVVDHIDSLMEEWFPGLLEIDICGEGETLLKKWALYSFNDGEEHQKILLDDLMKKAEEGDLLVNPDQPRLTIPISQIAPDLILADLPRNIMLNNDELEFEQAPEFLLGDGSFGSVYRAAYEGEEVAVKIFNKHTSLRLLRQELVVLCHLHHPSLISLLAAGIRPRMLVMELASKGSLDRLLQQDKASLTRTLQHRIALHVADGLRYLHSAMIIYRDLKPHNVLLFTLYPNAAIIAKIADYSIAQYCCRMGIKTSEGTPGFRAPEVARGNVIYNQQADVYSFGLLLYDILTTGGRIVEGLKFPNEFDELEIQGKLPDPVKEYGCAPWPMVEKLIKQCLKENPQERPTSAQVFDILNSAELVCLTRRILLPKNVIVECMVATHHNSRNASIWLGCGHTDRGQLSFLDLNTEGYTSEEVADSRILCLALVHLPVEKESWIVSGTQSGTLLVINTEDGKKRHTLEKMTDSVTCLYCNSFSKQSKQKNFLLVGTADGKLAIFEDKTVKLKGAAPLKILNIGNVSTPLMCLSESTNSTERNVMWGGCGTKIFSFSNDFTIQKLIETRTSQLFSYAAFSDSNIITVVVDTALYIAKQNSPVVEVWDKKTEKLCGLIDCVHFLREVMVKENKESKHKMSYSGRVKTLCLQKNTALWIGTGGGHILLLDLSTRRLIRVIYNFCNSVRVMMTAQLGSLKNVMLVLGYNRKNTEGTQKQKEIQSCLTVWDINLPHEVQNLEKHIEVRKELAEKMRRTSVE

With `c1cncc(-c2cc(-c3n[nH]c4ccnc(OC5CCOCC5)c34)ccn2)c1` [Example 197, 3-(2,3′-bipyridin-4-yl)-4-(tetrahydro-2H-pyran-4-yloxy)-1H-pyrazolo[4,3-c]pyridine], the Ki is 0.021 µM.

Take `c1cc(-c2cc(-c3n[nH]c4ccnc(OC5CCOCC5)c34)ccn2)ccn1` [Example 198, 3-(2,4′-bipyridin-4-yl)-4-(tetrahydro-2H-pyran-4-yloxy)-1H-pyrazolo[4,3-c]pyridine]: the Ki worked out at 0.026 µM. On to `c1ncc(-c2cc(-c3n[nH]c4ccnc(OC5CCOCC5)c34)ccn2)cn1` [Example 199, 3-(2-(pyrimidin-5-yl)pyridin-4-yl)-4-(tetrahydro-2H-pyran-4-yloxy)-1H-pyrazolo[4,3-c]pyridine], for which the Ki came out at 0.046 µM. Take `N#Cc1cccc(-c2cc(-c3n[nH]c4ccnc(OC5CCOCC5)c34)ccn2)c1` [Example 201, 3-(4-(4-(tetrahydro-2H-pyran-4-yloxy)-1H-pyrazolo[4,3-c]pyridin-3-yl)pyridin-2-yl) benzonitrile]: the Ki was 0.009 µM.

Turning to `N#Cc1ccc(-c2cc(-c3n[nH]c4ccnc(OC5CCOCC5)c34)ccn2)cc1` [Example 202, 4-(4-(4-(tetrahydro-2H-pyran-4-yloxy)-1H-pyrazolo[4,3-c]pyridin-3-yl)pyridin-2-yl) benzonitrile], the Ki worked out at 0.025 µM. Consider `CN(C)C(=O)c1cccc(-c2cc(-c3n[nH]c4ccnc(OC5CCOCC5)c34)ccn2)c1` [Example 203, N,N-dimethyl-3-(4-(4-(tetrahydro-2H-pyran-4-yloxy)-1H-pyrazolo[4,3-c]pyridin-3-yl)pyridin-2-yl)benzamide], for which the Ki was 0.018 µM. The figure for `c1cc(-c2n[nH]c3ccnc(OC4CCOCC4)c23)cc(-c2cn[nH]c2)n1` [Example 204, 3-(2-(1H-pyrazol-4-yl)pyridin-4-yl)-4-(tetrahydro-2H-pyran-4-yloxy)-1H-pyrazolo[4,3-c]pyridine] is 0.012 µM.

For `CC(=O)Nc1ccccc1-c1cc(-c2n[nH]c3ccnc(OC4CCOCC4)c23)ccn1` [Example 206, N-(2-(4-(4-(tetrahydro-2H-pyran-4-yloxy)-1H-pyrazolo[4,3-c]pyridin-3-yl)pyridin-2-yl)phenyl)acetamide], the Ki was 0.066 µM. Then `CC(=O)Nc1ccc(-c2cc(-c3n[nH]c4ccnc(OC5CCOCC5)c34)ccn2)cn1` [Example 207, N-(4-(4-(tetrahydro-2H-pyran-4-yloxy)-1H-pyrazolo[4,3-c]pyridin-3-yl)-2,3′-bipyridin-6′-yl)acetamide], with 0.021 µM; and `CC(=O)Nc1cccc(-c2cc(-c3n[nH]c4ccnc(OC5CCOCC5)c34)ccn2)c1` [Example 209, N-(3-(4-(4-(tetrahydro-2H-pyran-4-yloxy)-1H-pyrazolo[4,3-c]pyridin-3-yl)pyridin-2-yl)phenyl)acetamide], with 0.01 µM. `CC(=O)Nc1ccc(-c2cc(-c3n[nH]c4ccnc(OC5CCOCC5)c34)ccn2)cc1` [Example 210, N-(4-(4-(4-(tetrahydro-2H-pyran-4-yloxy)-1H-pyrazolo[4,3-c]pyridin-3-yl)pyridin-2-yl)phenyl)acetamide]: the Ki came out at 0.011 µM.

In the case of `CNC(=O)c1cccc(-c2cc(-c3n[nH]c4ccnc(OC5CCOCC5)c34)ccn2)c1` [Example 211, N-methyl-3-(4-(4-(tetrahydro-2H-pyran-4-yloxy)-1H-pyrazolo[4,3-c]pyridin-3-yl)pyridin-2-yl)benzamide], the Ki came out at 0.015 µM. The figure for `CN(C)C(=O)c1ccc(-c2cc(-c3n[nH]c4ccnc(OC5CCOCC5)c34)ccn2)cc1` [Example 212, N,N-dimethyl-4-(4-(4-(tetrahydro-2H-pyran-4-yloxy)-1H-pyrazolo[4,3-c]pyridin-3-yl)pyridin-2-yl)benzamide] is 0.009 µM. The figure for `CCn1cc(-c2cc(-c3n[nH]c4ccnc(OC5CCOCC5)c34)ccn2)cn1` [Example 213, 3-(2-(1-ethyl-1H-pyrazol-4-yl)pyridin-4-yl)-4-(tetrahydro-2H-pyran-4-yloxy)-1H-pyrazolo[4,3-c]pyridine] is 0.012 µM; for `CC(C)Oc1nccc2[nH]nc(-c3cc(C(=O)N4CCCC4)n(C(C)C)c3)c12` [Example 216, [4-(4-Isopropoxy-1H-pyrazolo[4,3-c]pyridin-3-yl)-1-isopropyl-1H-pyrrol-2-yl]-pyrrolidin-1-yl-methanone] it is 0.006 µM; for `CC(C)n1cc(-c2n[nH]c3ccnc(OC4CCOCC4)c23)cc1C(=O)N1CCC1` [Example 218, Azetidin-1-yl-{1-isopropyl-4-[4-(tetrahydro-pyran-4-yloxy)-1H-pyrazolo[4,3-c]pyridin-3-yl]-1H-pyrrol-2-yl}-methanone] it is 0.008 µM. Then `CC(C)Oc1nccc2[nH]nc(-c3ccnc(C(=O)N4C[C@@H]5C[C@H]4CO5)c3)c12` [Example 220, [4-(4-Isopropoxy-1H-pyrazolo[4,3-c]pyridin-3-yl)-pyridin-2-yl]-(1S,4S)-2-oxa-5-aza-bicyclo[2.2.1]hept-5-yl-methanone], with 0.384 µM; and `CC(C)n1cc(-c2n[nH]c3ccnc(OC4CCOC4)c23)cn1` (stereo not drawn) [Example 224, 3-(1-Isopropyl-1H-pyrazol-4-yl)-4-(tetrahydro-furan-3-yloxy)-1H-pyrazolo[4,3-c]pyridine], with 0.007 µM; and `COc1nccc2[nH]nc(-c3cnn(C4CCOC4)c3)c12` (stereo not drawn) [Example 234, 4-methoxy-3-(1-(tetrahydrofuran-3-yl)-1H-pyrazol-4-yl)-1H-pyrazolo[4,3-c]pyridine], with 0.023 µM. Consider `CNC(=O)c1cccc(-c2[nH]nc3cc(C)nc(OC)c23)c1` [Example 235, 3-(4-methoxy-6-methyl-1H-pyrazolo[4,3-c]pyridin-3-yl)-N-methylbenzamide], for which the Ki worked out at 0.199 µM. As to `COc1nccc2[nH]nc(-c3ccnc(N4C[C@@H](C)O[C@@H](C)C4)c3)c12` [Example 238, (2S,6R)-4-(4-(4-methoxy-1H-pyrazolo[4,3-c]pyridin-3-yl)pyridin-2-yl)-2,6-dimethylmorpholine], the Ki is 0.025 µM.

The values are drawn from patent US8569281B2, “Compounds and their administration for treating a neurodegenerative disease as well as a method for identifying a compound capable of inhibiting a kinase, such as LRRK” (Medical Research Council Technology, priority 2010, dated 2013).
